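Following 48 hours of exposure in 96-well plates, responses at five concentrations were used to interpolate endpoints linearly. At the GI50, growth is halved.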 Calls of active or inactive are those of the source. No stated cut-off is given here; in the data, active = GI50 up to about 1.1 µM and inactive = higher. Peptide text beside a SMILES is read from it. * marks the point of attachment. Boc = CC(C)(C)OC(=O)*
How the values were obtained:
Test in all cases: NCI tumour cell line growth inhibition, 48 h
NCI/ADR-RES = test system: NCI/ADR-RES
SNB-75 = test system: SNB-75
TK-10 = test system: TK-10
RPMI-8226 = test system: RPMI-8226
SF-539 = test system: SF-539
RXF 393 = test system: RXF 393
KM12 = test system: KM12
SK-MEL-28 = test system: SK-MEL-28
UACC-257 = test system: UACC-257
HCT-15 = test system: HCT-15
T47D = test system: T47D
NCI-H226 = test system: NCI-H226
SNB-19 = test system: SNB-19
CAKI-1 = test system: CAKI-1
UACC-62 = test system: UACC-62
HT-29 = test system: HT-29
SK-MEL-5 = test system: SK-MEL-5
DMS-114 = test system: DMS-114
LXFL 529 = test system: LXFL 529

| Structure (SMILES) | GI50 (NCI/ADR-RES) | GI50 (SNB-75) | GI50 (TK-10) | GI50 (RPMI-8226) | GI50 (SF-539) | GI50 (RXF 393) | GI50 (KM12) | GI50 (SK-MEL-28) | GI50 (UACC-257) | GI50 (HCT-15) | GI50 (T47D) | GI50 (NCI-H226) | GI50 (SNB-19) | GI50 (CAKI-1) | GI50 (UACC-62) | GI50 (HT-29) | GI50 (SK-MEL-5) | GI50 (DMS-114) | GI50 (LXFL 529) |
| --- | --- | --- | --- | --- | --- | --- | --- | --- | --- | --- | --- | --- | --- | --- | --- | --- | --- | --- | --- |
| CCOC(=O)C(NCc1ccc2c(c1)OCO2)(NC(=O)c1ccccc1)C(F)(F)F (stereo not given) | 46.2 µM (inactive) | > 100 µM (inactive) | > 100 µM (inactive) | 34.7 µM (inactive) | > 100 µM (inactive) | > 100 µM (inactive) | 88.1 µM (inactive) | > 100 µM (inactive) | > 100 µM (inactive) | > 100 µM | 38.3 µM (inactive) | > 100 µM (inactive) | > 100 µM (inactive) | > 100 µM (inactive) | > 100 µM (inactive) | > 100 µM (inactive) | > 100 µM (inactive) |  |  |
| O=C1C=C(c2[nH]c3ccccc3c2C2=CC(=O)c3ccccc3C2=O)C(=O)c2ccccc21 |  | 26 µM (inactive) | 94.4 µM (inactive) | 33 µM (inactive) | 34.8 µM (inactive) | 39.7 µM (inactive) | 36.1 µM (inactive) | 57 µM (inactive) |  |  |  | 61.7 µM (inactive) | 70.1 µM (inactive) |  | 24.9 µM (inactive) | > 100 µM (inactive) | 31.7 µM (inactive) | 17.3 µM (inactive) | 37.3 µM (inactive) |
| CCOC(=O)c1c(C)n(-c2ccc(C)cc2)c(=O)c2ccccc2c(=O)c2c(=O)ccc(=O)c1=2 | 18.5 µM (inactive) | 23.3 µM (inactive) | 15.5 µM (inactive) | 4.7 µM (inactive) | 21.9 µM (inactive) | 17.4 µM (inactive) | 13.6 µM (inactive) | 12.2 µM (inactive) | 18.5 µM (inactive) | 14.3 µM | 20 µM (inactive) | 18.2 µM (inactive) | 32.2 µM (inactive) | 14.5 µM (inactive) | 19.6 µM (inactive) | 12.2 µM (inactive) | 14.7 µM (inactive) |  |  |
| O=C(c1ccco1)n1c2ccc(Br)cc2c2nc3ccccc3nc21 | 35.6 µM (inactive) | 16.6 µM (inactive) | 45.8 µM (inactive) | 11.2 µM (inactive) | > 100 µM (inactive) | 52 µM (inactive) | 26.8 µM (inactive) | > 100 µM (inactive) | > 100 µM (inactive) | 48.2 µM | > 100 µM (inactive) | 68.4 µM (inactive) | 23.2 µM (inactive) | 84.9 µM (inactive) | 31.6 µM (inactive) | 81.5 µM (inactive) | > 100 µM (inactive) |  |  |
| COc1cc(/C=C2\C(=O)N(c3cccc(NC(C)=O)c3)C(c3ccccc3)S2(=O)=O)cc(OC)c1OC (stereo not given) | 94.6 µM (inactive) | 62.7 µM (inactive) | > 100 µM (inactive) | 40.7 µM (inactive) | 48.3 µM (inactive) | > 100 µM (inactive) | 49.8 µM (inactive) | 91.2 µM (inactive) | > 100 µM (inactive) | 71.4 µM | 34.7 µM (inactive) | 67.6 µM (inactive) | > 100 µM (inactive) | > 100 µM (inactive) | 80.9 µM (inactive) | 55.2 µM (inactive) | 39.1 µM (inactive) |  |  |
| CC(C)(C)OC(=O)NCCC1SC2C=CC1C2 (stereo not given) | > 100 µM (inactive) | > 100 µM (inactive) | > 100 µM (inactive) | > 100 µM (inactive) | > 100 µM (inactive) | > 100 µM (inactive) | > 100 µM (inactive) | > 100 µM (inactive) | > 100 µM (inactive) | > 100 µM | 99.3 µM (inactive) | > 100 µM (inactive) | > 100 µM (inactive) | > 100 µM (inactive) | > 100 µM (inactive) | > 100 µM (inactive) | 83.2 µM (inactive) |  |  |
| c1ccc2c(c1)CCc1cc3cc4c(nc3nc1-2)-c1ccccc1CC4 |  | > 100 µM (inactive) | > 100 µM (inactive) | > 100 µM (inactive) | > 100 µM (inactive) | 69.7 µM (inactive) | > 100 µM (inactive) | > 100 µM (inactive) | > 100 µM (inactive) | > 100 µM |  | > 100 µM (inactive) | > 100 µM (inactive) |  | > 100 µM (inactive) | > 10 µM (inactive) |  |  | > 100 µM (inactive) |
| FC(F)(F)c1ccc(Cc2nc3cc4ccccc4cc3[nH]2)cc1 | > 100 µM (inactive) | 3.78 µM (inactive) | > 100 µM (inactive) | 6.97 µM (inactive) | > 100 µM (inactive) | 51.6 µM (inactive) | > 100 µM (inactive) | > 100 µM (inactive) | > 100 µM (inactive) | > 100 µM | 39.9 µM (inactive) | > 100 µM (inactive) | 45.7 µM (inactive) | 73.3 µM (inactive) | > 100 µM (inactive) | 91.8 µM (inactive) | 54.6 µM (inactive) |  |  |
| O=C1C(Cl)=C(NCCOCCO)C(=O)c2c(O)ccc(O)c21 |  | 17 µM (inactive) | 13.6 µM (inactive) | 3.1 µM (inactive) | 4.53 µM (inactive) | 14.1 µM (inactive) | 3.32 µM (inactive) |  | 2.97 µM (inactive) | 1.85 µM |  | 18.3 µM (inactive) |  | 23.9 µM (inactive) | 3.24 µM (inactive) | 3.08 µM (inactive) | 1.96 µM (inactive) |  | 7.62 µM (inactive) |
| Cn1ccnc1Sc1ccc(/C=N/NC(=O)c2ccccc2[N+](=O)[O-])cc1[N+](=O)[O-] | > 100 µM (inactive) | > 100 µM (inactive) | 65.3 µM (inactive) | 38.7 µM (inactive) | > 100 µM (inactive) | 52.5 µM (inactive) | 49.9 µM (inactive) | > 100 µM (inactive) | 87.5 µM (inactive) | 45.7 µM | 40.6 µM (inactive) | > 100 µM (inactive) | > 100 µM (inactive) | 49.8 µM (inactive) | 64.3 µM (inactive) | 35.6 µM (inactive) | 46.1 µM (inactive) |  |  |
| COc1ccc(Cc2c(N)[nH]c(=O)[nH]c2=O)cc1 | > 100 µM (inactive) | > 100 µM (inactive) | > 100 µM (inactive) | 22 µM (inactive) | > 100 µM (inactive) | > 100 µM (inactive) | > 100 µM (inactive) | > 100 µM (inactive) | > 100 µM (inactive) | > 100 µM | > 100 µM (inactive) | > 100 µM (inactive) | > 100 µM (inactive) | > 100 µM (inactive) | > 100 µM (inactive) | > 100 µM (inactive) | > 100 µM (inactive) |  |  |
| CCN(CCCl)c1cc(CN(C)C)cc(NC(=O)c2ccc(C(=O)Nc3cccc(N(CCCl)NN)c3)cc2)c1 | 1.97 µM (inactive) | 0.0336 µM (active) | 0.296 µM (active) | 0.0492 µM (active) | 0.16 µM (active) | 0.0285 µM (active) | 0.123 µM (active) | 0.192 µM (active) | 0.174 µM (active) | 0.455 µM | 0.0612 µM (active) | 0.145 µM (active) | < 0.01 µM (active) | 0.0168 µM (active) | < 0.01 µM (active) | 0.0154 µM (active) | 0.0461 µM (active) |  |  |
| CC(=O)Nc1ccc2c3c(cc(O)c2c1)N(C(=O)CCCCC(=O)Nc1ccc2c4c(cc(O)c2c1)N(C(=O)OC(C)(C)C)CC4CCl)CC3CCl (stereo not given) | 21.7 µM (inactive) | 1.82 µM (inactive) | 10.4 µM (inactive) | 3.13 µM (inactive) | 2.25 µM (inactive) | 1.53 µM (inactive) | 2.79 µM (inactive) | 3.3 µM (inactive) | 2.26 µM (inactive) | 16.7 µM | 0.82 µM (active) | 2.13 µM (inactive) | 2.09 µM (inactive) | 17.4 µM (inactive) | 1.54 µM (inactive) | 2.82 µM (inactive) | 1.54 µM (inactive) |  |  |
| CCCCCCCCCCCCCCCCOCC(CP(=O)([O-])OCC[n+]1ccccc1)OC (stereo not given) |  | 8.45 µM (inactive) | 2.9 µM (inactive) | 2.96 µM (inactive) | 14.6 µM (inactive) |  | 2.67 µM (inactive) | 17 µM (inactive) | 14.5 µM (inactive) |  |  | 4.02 µM (inactive) | 10.1 µM (inactive) | 10.4 µM (inactive) | 11.3 µM (inactive) | 4.21 µM (inactive) | 14.1 µM (inactive) | 11.4 µM (inactive) | 11.4 µM (inactive) |
| CC(NC(=O)OC(C)(C)C)C(=O)NC(Cc1ccccc1)C(=O)NCC(=O)O (stereo not drawn) (Boc-Ala-Phe-Gly-OH; configuration not given here) | > 100 µM (inactive) | > 100 µM (inactive) | > 100 µM (inactive) | > 100 µM (inactive) | > 100 µM (inactive) | > 100 µM (inactive) | > 100 µM (inactive) | > 100 µM (inactive) | > 100 µM (inactive) | > 100 µM | > 100 µM (inactive) | > 100 µM (inactive) | > 100 µM (inactive) | > 100 µM (inactive) | > 100 µM (inactive) | > 100 µM (inactive) | > 100 µM (inactive) |  |  |
| CCOC(C)C(/C=N/NC(N)=S)=NNC(N)=S (stereo not given) [GLOXAZONE] |  | 40.3 µM (inactive) | > 100 µM (inactive) | 0.0643 µM (active) | > 100 µM (inactive) |  | > 100 µM (inactive) | > 74.1 µM (inactive) | < 0.0411 µM (active) | > 100 µM |  |  | > 100 µM (inactive) | > 100 µM (inactive) | > 100 µM (inactive) |  | 48.3 µM (inactive) | < 0.01 µM (active) | 0.0865 µM (active) |
| C/C(=C\c1csc(C)n1)[C@@H]1C[C@@H]2O[C@]2(C)CCC[C@H](C)[C@H](O)[C@@H](C)C(=O)C(C)(C)[C@@H](O)CC(=O)O1 [PATUPILONE] | < 0.0001 µM (active) | < 0.0001 µM (active) | < 0.0001 µM (active) | < 0.0001 µM (active) | < 0.0001 µM (active) | < 0.0001 µM (active) | < 0.0001 µM (active) | < 0.0001 µM (active) | < 0.0001 µM (active) | < 0.0001 µM | < 0.0001 µM (active) | < 0.0001 µM (active) | < 0.0001 µM (active) | < 0.0001 µM (active) | < 0.0001 µM (active) | < 0.0001 µM (active) | < 0.0001 µM (active) |  |  |
